Values of other authors, collected in patent US10765646B2, “Methods of treating developmental encephalopathies” (Ovid Therapeutics Inc., priority 2017, dated 2020).

Tests used:
[1] = estimated
[2] = 5 mg (±)-ketamine i.v. infusion (30 min), single dose, fasting, healthy subjects, serum
[3] = relative to ketamine
[4] = biological target: NMDA receptor; conditions: noncompetitive NMDA receptor antagonist

CNC1(c2ccccc2Cl)CCCCC1=O (racemic) [ketamine, (R,S)-2-(2-chlorophenyl)-2-(methylamino)cyclohexanone]
elimination half-life [1]: 2 to 3 h | AUC0-∞ of (±)-ketamine [2]: 59.9 ± 13.2 ng·h/mL | Cmax of (±)-ketamine [2]: 33.7 ± 9.74 ng/mL | T1/2 (apparent terminal half-life) of (±)-ketamine [2]: 6.99 ± 5.22 h

NC1(c2ccccc2Cl)CCCCC1=O (racemic) [norketamine, (R,S)-2-(2-chlorophenyl)-2-(amino)cyclohexanone]
times less potent as an anesthetic in comparison (with ketamine) [3]: 3-5 times | elimination half-life [1]: 4 h

N[C@@]1(c2ccccc2Cl)CCCCC1=O [(R)-(−)-norketamine]
Ki [4]: 13 µM

N[C@]1(c2ccccc2Cl)CCCCC1=O [(S)-(+)-norketamine]
Ki [4]: 1.7 µM
